Measurements as given in PubChem BioAssay AID1645868 (Buhrlage Lab, Dana-Farber Cancer Institute and Novartis …, 2021).
pIC50: −log10 of the molar value. The source made the active and inactive calls.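 How the source made its calls: active means maximal percent inhibition of the deubiquitinase OTUD3 of at least 30% across the tested doses; inactive means the rest.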

Target: OTU domain-containing protein 3 (Homo sapiens) (UniProt Q5T2D3)
Experiment: Validation of screening hits, potency titration, in vitro enzymatic, OTU domain-containing protein 3 DUB inhibitors (AID 1645868)
Conditions: purified OTUD3, ubiquitin-rhodamine cleavage fluorescence, 2 h

Chain of OTU domain-containing protein 3 (Homo sapiens) (Q5T2D3 whole entry, looked up, the tested form may be a part): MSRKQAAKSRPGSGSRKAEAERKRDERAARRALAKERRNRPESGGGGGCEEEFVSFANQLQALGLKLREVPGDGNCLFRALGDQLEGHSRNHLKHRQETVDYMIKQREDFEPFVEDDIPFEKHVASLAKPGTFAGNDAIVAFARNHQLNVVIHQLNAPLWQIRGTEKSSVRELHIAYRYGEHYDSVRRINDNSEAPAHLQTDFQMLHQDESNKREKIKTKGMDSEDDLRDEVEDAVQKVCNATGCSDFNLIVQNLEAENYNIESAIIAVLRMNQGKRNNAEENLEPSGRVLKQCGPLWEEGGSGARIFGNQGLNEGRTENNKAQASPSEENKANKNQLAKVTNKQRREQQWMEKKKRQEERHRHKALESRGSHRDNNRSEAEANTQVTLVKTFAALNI

| Compound | IC50 | pIC50 |
| --- | --- | --- |
| COc1ccc(C(=O)NCC(c2ccc3c(c2)CCCN3C)N2CCCC2)cc1 (stereo not drawn) | > 50 µM (inactive) |  |
| COc1ccc(-c2nc(SCC(=O)Nc3ccc(C(C)=O)cc3)n[nH]2)cc1 |  | 4.74 |
| COc1ccc(C(=O)Nc2ccccc2C(=O)NCc2ccccc2)cc1 | > 50 µM (inactive) |  |
| Cc1nc(N2CCCC2)ncc1C(=O)Nc1ccc(F)c(F)c1 | > 50 µM (inactive) |  |
| COc1ccccc1OCc1ccc(C(=O)Nc2ccc(F)cc2C)cc1 | > 50 µM (inactive) |  |
| Cc1cccc(C(=O)Nc2cccc(SC(C(=O)Nc3ccc(O)c(C(=O)O)c3)c3ccccc3)c2)c1 (stereo not drawn) |  | 4.62 |
| Cc1cc(=O)n(CC(=O)Nc2ccccc2C)c(Nc2ccc(F)cc2)n1 |  | 4.63 |
| O=C(NCc1ccccc1)c1ccc2c(=O)n(-c3ccccc3)c(=O)[nH]c2c1 |  | 4.42 |
| O=C(NC1CCN(Cc2ccccc2)CC1)c1[nH]nc2c1COc1ccccc1-2 | > 50 µM (inactive) |  |
| COc1ccc(-n2nnc3c(SCC(=O)Nc4cc(C)on4)ncnc32)cc1 | > 50 µM (inactive) |  |
| CCc1ccccc1NC(=O)c1cc(-c2ccccn2)n[nH]1 | > 50 µM (inactive) |  |
| Cc1ccc(CNC(=O)CCCn2c(=O)c3sccc3n(CC(=O)OCc3ccccc3)c2=O)cc1 |  | 5.45 |
| CC(=O)c1cc2c(=O)c3c(C(=O)O)c(O)c(O)cc3oc2c(C(C)=O)c1-c1coc2cc(O)c(O)c(C(=O)O)c2c1=O |  | 6.43 |
| COc1cc(Cl)ccc1Nc1ncc(C(=O)Nc2cc(OC)c(OC)c(OC)c2)c2ccccc12 |  | 6.92 |
| CCC(=O)OCc1cnc(C)c2oc(=O)c(-c3nc(-c4ccccc4)no3)cc12 | > 50 µM (inactive) |  |
| O=C(Nc1ccc2c(c1)OCCO2)c1ccc(N2CCCC2=O)cc1 | > 50 µM (inactive) |  |
| Cc1nn(-c2ccc(Cl)cc2)c2[nH]c(=O)c(CNCC3CCCO3)cc12 (stereo not drawn) | > 50 µM (inactive) |  |
| Cc1cc(C)cc(NC(=O)CN2C(=O)CC(c3ccccc3)Sc3ccccc32)c1 (stereo not drawn) | > 50 µM (inactive) |  |
| O=C(Nc1ccc(-c2cn3ccccc3n2)cc1)C1C=C2C=C(Br)C=CC2OC1=O (stereo not drawn) | > 50 µM (inactive) |  |
| CC(CCc1ccccc1)NC(=O)Cn1c(=O)c2cccn2c2ccccc21 (stereo not drawn) |  | 4.48 |
| O=C(Nc1nnc2n1CCCS2)c1cc2ccccc2o1 | > 50 µM (inactive) |  |
| COc1ccc(CNC(=O)CN2C(=O)CC(c3ccccc3)=Nc3ccccc32)cc1 |  | 4.79 |
| COc1ccc2cc1Oc1cc(ccc1OC)C(O)C13SSC4(C(=O)N1C)C(O)C1=COC=CC(OC2=O)C1N4C3=O (stereo not drawn) | > 50 µM (inactive) |  |
| CCOC(=O)C1CCN(C(=O)c2ccc3c(c2)NC(=O)C2CCCN32)CC1 (stereo not drawn) | > 50 µM (inactive) |  |

| Compound | IC50 | pIC50 |
| --- | --- | --- |
| CN(C)CCc1cc2c(c3c1ccc1ccccc13)OCO2 | > 50 µM (inactive) |  |
| CCC(C(=O)NCc1ccncc1)N(c1cccc(Cl)c1)S(C)(=O)=O (stereo not drawn) | > 50 µM (inactive) |  |
| O=C(Cn1cncc(C(=O)NC2CCCC2)c1=O)Nc1cccc(F)c1 |  | 4.41 |
| Cc1nc(C(=O)Nc2cccc(Cl)c2Cl)nn1-c1cc(Cl)cc(Cl)c1 | > 50 µM (inactive) |  |
| COc1ccc(C(=O)NCCc2nnc3ccc(SCC(=O)NCc4ccc(F)cc4)nn23)cc1 |  | 4.58 |
| COc1cccc(/C=C/C(=O)Nc2ccc(N3CCOCC3)cc2)c1OC | > 50 µM (inactive) |  |
| O=C1c2ccccc2NC2(C(=O)Nc3ccc(Br)cc32)N1c1ccccc1 (stereo not drawn) | > 50 µM (inactive) |  |
| Cc1ccc(S(=O)(=O)Nc2ccccc2SCCS(=O)(=O)c2ccc(Cl)cc2)cc1 | > 50 µM (inactive) |  |
| O=C1C[C@@H](O)[C@H](O)[C@@]23O[C@@]12C1(Oc2cccc4cccc(c24)O1)[C@@H]1O[C@@H]1[C@@H]3O |  | 4.38 |
| CN(C)S(=O)(=O)c1ccc(N2CCCC2)c(C(=O)Nc2ccc(-c3cn4ccsc4n3)cc2)c1 | > 50 µM (inactive) |  |
| Cc1c(C(=O)Nc2ccc(-c3nnc4n3CCCCC4)cc2)oc2c1ccc1ccccc12 | > 50 µM (inactive) |  |
| CC(C)c1nc2sc3c(NCc4ccco4)ncnc3c2c2c1CCC2 | > 50 µM (inactive) |  |
| Cc1ccc2c(=O)c(C(=O)Nc3ccccc3)cn(CC(=O)NC3CCCCC3)c2n1 | > 50 µM (inactive) |  |
| O=C(Cn1c(=O)nc(-c2ccccc2)c2ccccc21)NCc1ccc2c(c1)OCO2 |  | 4.65 |
| CCc1ccc(-n2c(=O)c3ccccc3n(CC(=O)NCCC3=CCCCC3)c2=O)cc1 |  | 4.67 |
| Cc1sc(-c2cccnc2)nc1OC(=O)c1ccc(Cl)c(Cl)c1 | > 50 µM (inactive) |  |
| Oc1sc(C=Nc2cc(Cl)ccc2Cl)c2ccccc12 | > 50 µM (inactive) |  |
| COc1ccc(NC(=O)c2nnn(-c3ccccc3F)c2C)cc1OC | > 50 µM (inactive) |  |
| COC(=O)c1ccc2c(=O)n(CCCCCC(=O)NCCc3ccc(S(N)(=O)=O)cc3)c(=O)[nH]c2c1 |  | 4.90 |
| Cc1ccc(C)c(Nc2cc(C)nc3nc(-c4ccco4)nn23)c1 | > 50 µM (inactive) |  |
| Cc1cc(C(=O)N2CC(C(=O)Nc3cc(C(F)(F)F)ccc3Cl)C2)no1 | > 50 µM (inactive) |  |
| CC(C)CC(=O)Nc1cc(F)c2nc(N3CCOCC3)ccc2c1 | > 50 µM (inactive) |  |
| Cc1cc(C(=O)NC2(O)C(=O)c3ccccc3C2=O)n(C)n1 |  | 4.33 |
| O=C(NCCc1ccco1)c1ccc(N2CCOc3ccccc32)s1 |  | 4.55 |

| Compound | IC50 | pIC50 |
| --- | --- | --- |
| Cc1c(Cl)cccc1NC(=O)Cn1ccc2ccccc2c1=O | > 50 µM (inactive) |  |
| COCCN(C1CCN(CCc2ccc(Cl)cc2)CC1)S(=O)(=O)c1cccc2cccnc12 | > 50 µM (inactive) |  |
| CCOc1ccc(C2=NCCNC3=C2C(c2ccccc2)N(c2ccccc2)C3=O)cc1 (stereo not drawn) | > 50 µM (inactive) |  |
| CCOc1ccc(NC(=O)CSc2nc3n[nH]c(C)c3c(=N)n2-c2ccc(OC)cc2)cc1 | > 50 µM (inactive) |  |
| O=C(NCc1ccccc1Cl)c1ccc(-c2nnc(-c3ccccc3)o2)cc1 |  | 5.25 |
| CC(C)(C)C(=O)C1C2C(=O)N(c3ccc4c(c3)OCO4)C(=O)C2C2c3ccccc3C=CN12 (stereo not drawn) | > 50 µM (inactive) |  |
| Cn1cc(-c2noc(Cc3cccc(C(F)(F)F)c3)n2)ccc1=O | > 50 µM (inactive) |  |
| COc1ccc(Cn2cnc3c([nH]c4ccc(Br)cc43)c2=O)cc1 | > 50 µM (inactive) |  |
| Cc1ccc(C(C)C)cc1OCCOCCN1CCNCC1 | > 50 µM (inactive) |  |
| COc1ccc(C2SCC(=O)Nc3c2c(=O)[nH]n3C2CCCCC2)cc1 (stereo not drawn) |  | 4.63 |
| CC(C(=O)Nc1ccccc1)n1cnc2nc(N3CCCCC3)ncc2c1=O (stereo not drawn) | > 50 µM (inactive) |  |
| COc1ccc(CNc2nn3c(-c4cncc(OC)c4)cnc3s2)cc1 | > 50 µM (inactive) |  |
| O=C(NCC1CC1)C1CCCN(c2ccc(-c3ccccc3)nn2)C1 (stereo not drawn) | > 50 µM (inactive) |  |
| COc1ccc(OC)c(NC(=O)CS(=O)(=O)c2cn(CC(=O)N3CCC(C)CC3)c3ccccc23)c1 |  | 4.47 |
| CC1CCN(c2cc(-n3cnc(C(=O)N4CCCC(C)C4)c3)ncn2)CC1 (stereo not drawn) | > 50 µM (inactive) |  |
| COc1ccc(-c2cc(N3CCC(NC(=O)c4ccccc4)C3)n[nH]2)cc1 (stereo not drawn) |  | 4.73 |
| COc1cccc(N2CCN(C(=O)C3CCN(c4nc(NC(C)=O)ns4)CC3)CC2)c1 | > 50 µM (inactive) |  |
| COc1ccc(-c2nc3n(n2)C(c2cccc(O)c2)C2=C(CCCC2=O)N3)cc1 (stereo not drawn) | > 50 µM (inactive) |  |
| O=C(COc1ccc(F)cc1)Nc1cc(F)c2nc(N3CCOCC3)ccc2c1 | > 50 µM (inactive) |  |
| O=C(COc1ccccc1-c1nnc(-c2ccccc2)o1)Nc1ccc(F)cc1F |  | 4.40 |
| CCOC(=O)c1cnc(C(F)(F)F)nc1Sc1n[nH]c(-c2cccs2)n1 | > 50 µM (inactive) |  |
| CC1CS(=O)(=O)N(c2ccc(C(=O)Nc3ccc4c(c3)OCCO4)cc2)C1=O (stereo not drawn) |  | 4.54 |
| COc1ccccc1-n1nnc(C(=O)Nc2ccc(Oc3ccccc3)cc2)c1C | > 50 µM (inactive) |  |
| Cc1ccc(CNC(=O)CCCn2c(=O)c3sccc3n(CC(=O)Nc3cc(Cl)ccc3C)c2=O)cc1 |  | 5.02 |

| Compound | IC50 | pIC50 |
| --- | --- | --- |
| O=C(NCc1ccc(Cl)cc1)c1ccc(N2CCCS2(=O)=O)cc1 | > 50 µM (inactive) |  |
| O=C(Nc1ccc(Oc2cccc3cccnc23)cc1)c1cccs1 | > 50 µM (inactive) |  |
| Cc1ccc(CNC(=O)c2cnc3ccccc3n2)cc1 | > 50 µM (inactive) |  |
| CCCCOc1ccc(C(=O)Nc2ccc3c(c2)CCC(=O)N3CCC)cc1 | > 50 µM (inactive) |  |
| CC1CCCN(S(=O)(=O)c2cc3cc(F)ccc3oc2=O)C1 (stereo not drawn) | > 50 µM (inactive) |  |
| CC1=CN2C(=N)/C(=C/c3cn(Cc4ccc(Cl)cc4)c4ccccc34)C(=O)N=C2S1 | > 50 µM (inactive) |  |
| CC(C)NS(=O)(=O)c1cccc2c(NC(=O)C(Cc3ccccc3)NC(=O)c3ccccc3)cccc12 (stereo not drawn) | > 50 µM (inactive) |  |
| CC1(C)C[C@@H](O)[C@]2(C)CC[C@]3(C)C(=CCC4[C@@]5(C)CC[C@H](O)[C@](C)(CO)[C@@H]5CC[C@]43C)[C@@H]2C1 (stereo partly drawn) | > 50 µM (inactive) |  |
| COc1ccc(N2CCN(Cc3nnnn3Cc3ccc4c(c3)OCO4)CC2)cc1 | > 50 µM (inactive) |  |
| Cc1nnc(NC(=O)C2CCN(c3ccc(S(N)(=O)=O)cc3[N+](=O)[O-])CC2)o1 |  | 4.81 |
| Cc1ccc(C)c(CSC2=NCCN2C(=O)c2ccco2)c1 | > 50 µM (inactive) |  |
| O=C(Cn1c(-c2ccccc2)ncc(C(=O)NC2CC2)c1=O)Nc1ccccc1 |  | 4.59 |
| CCOC(=O)c1sc2c(c1C)c(=O)n(Cc1ccccc1)c(=O)n2CC(N)=O | > 50 µM (inactive) |  |
| COc1cccc(C(=O)Nc2ccc(-n3cnnn3)cc2)c1 | > 50 µM (inactive) |  |
| Cc1ccc(NC(=O)Cn2cc(S(=O)(=O)N3CCCC3)ccc2=O)cc1 |  | 4.56 |
| CCOc1ccc2nc(NC(=O)C3CCN(S(=O)(=O)c4ccc5c(c4)CC(C)N5C(C)=O)CC3)sc2c1 (stereo not drawn) | > 50 µM (inactive) |  |
| C/C1=C/C=C/[C@H](C)[C@H](O)[C@@H](C)[C@@H](O)[C@@H](C)[C@H](O)[C@H](C)[C@@H](O)[C@@H](C)/C=C(/C)C(=O)c2c(O)c(C)cc3c2C(=O)C=C(NC1=O)C3=O | > 50 µM (inactive) |  |
| COc1ccc(OC)c(CCNC(=O)CCC2=NS(=O)(=O)c3ccc(C(F)(F)F)cc3N2)c1 |  | 4.54 |
| O=C(NCc1ccc2c(c1)OCO2)c1nnc(Cc2ccc(F)cc2)o1 | > 50 µM (inactive) |  |
| COc1ccc(N2C(=O)[C@@H]3[C@H]4c5ccccc5C=CN4C(C(=O)Nc4ccc5c(c4)OCO5)[C@@H]3C2=O)cc1 (stereo partly drawn) | > 50 µM (inactive) |  |
| COc1cc(C(=O)NC(Cc2ccccc2)c2nc3ccccc3[nH]2)cc(OC)c1OC (stereo not drawn) |  | 5.52 |
